From patent publication US4260629A, “Treating pain with acetaminophen and 1,4-dimethyl-5-p-chlorobenzoyl-pyrrole-2-acetic acid” (E. I. Du Pont de Nemours and Company, priority 1979, dated 1981)

What was measured:
[1] = system: phenyl-p-benzoquinone induced writhing; experiment: mouse antiphenylquinone writhing test (prevention of phenyl-p-benzoquinone induced writhing; oral analgesic activity); assay type: in vivo, mouse (male CF1)
Description: Male CF1 mice obtained from Charles River Breeding Laboratories, fasted for 16-22 hours, and weighing 18-22 g at the time of testing are used throughout. All mice are dosed orally with acetaminophen and/or zomepirac (calculated as the sodium salt) dissolved completely in distilled water containing as vehicle 2% by volume of Tween 80®, a pharmacological dispersant manufactured by Fisher Scientific Company and containing 100% polysorbate 80. A dosing volume of 20 ml/kg is used. All doses are coded and the test is performed under a code not known to the observer.
A standard procedure for detecting and comparing the analgesic activity of different classes of analgesia drugs for which there is a good correlation with human efficacy is the prevention of phenyl-p-benzoquinone induced writhing in mice (H. Blumberg et al.; Proc. Soc. Exp. Biol. Med. 118, 763-766, 1965).
Mice, intubated with various doses of sodium zomepirac, acetaminophen, combined doses of sodium zomepirac and acetaminophen, or vehicle, are injected intraperitoneally with a challenge dose of phenyl-p-benzoquinone.The phenyl-p-benzoquinone is prepared as a 0.1 mg/ml solution in 5% by volume of ethanol in water; the writhing dose is 1.25 mg/kg injected at the rate of 0.25 ml/20 g. For scoring purposes a "writhe" is indicated by whole body stretching or contraction of the abdomen: mice are observed 10 minutes for the presence or absence of writhing beginning 5 minutes after receiving the phenyl-p-benzoquinone dose. Each mouse is used only once, then discarded.
In order to study the interaction between zomepirac and acetaminophen, precise dosage ratios of sodium zomepirac and acetaminophen are selected. Four to five coded doses of each selected combination are studied for analgesic effectiveness at 10 minutes using an experimental design which permits complete randomization of the separate dosage forms tested. Altogether 25 separate dosage forms are used and each form is represented in each experimental session. The experiments are continued by running experimental sessions with an equal number of mice being tested for each dosage group until the total number, N, of mice tested per group is 20.
In the drawing, the diagonal line joining the ED50 values of the two drugs given separately represents simple additivity of drug effects. The dashed lines on each side of the diagonal line give the 95% confidence limits for this line of additivity. […] The 3 diagonal lines radiating from the origin represent the dose ratios of sodium zomepirac to acetaminophen used in mice receiving the combined drug dosages.

[2] = system: phenyl-p-benzoquinone induced writhing; experiment: as above; assay type: in vivo, mouse (male CF1); settings: 10 min, preliminary experiment, 95% confidence limits 0.80-1.69 (sodium zomepirac), 166-281 (acetaminophen)

SMILES	ED50 at 10 Min. (95% Confidence limits), Acetaminophen (alone or as component of the combination) ([1]; 10 min, N = 20 mice/dose, 95% limits on following lines: alone 162-309, 1:62.1 22.6-40.6, 1:186 37.7-68.5, 1:559 62.6-111) [mg/kg]	% MICE BLOCKED ([1]; sodium zomepirac 0 + acetaminophen 54 mg/kg) [%]	% MICE BLOCKED ([1]; sodium zomepirac 0 + acetaminophen 108 mg/kg) [%]	% MICE BLOCKED ([1]; sodium zomepirac 0 + acetaminophen 216 mg/kg) [%]	% MICE BLOCKED ([1]; sodium zomepirac 0 + acetaminophen 432 mg/kg) [%]	ED50 [2] [mg/kg]	ED50 at 10 Min. (95% Confidence limits), Sodium Zomepirac (alone or as component of the combination) ([1]; 10 min, N = 20 mice/dose, 95% limits on following lines: alone 1.09-2.12, 1:62.1 0.367-0.649, 1:186 0.204-0.365, 1:559 0.114-0.195) [mg/kg]	% MICE BLOCKED ([1]; sodium zomepirac 0.29 + acetaminophen 0 mg/kg) [%]	% MICE BLOCKED ([1]; sodium zomepirac 0.58 + acetaminophen 0 mg/kg) [%]	% MICE BLOCKED ([1]; sodium zomepirac 1.16 + acetaminophen 0 mg/kg) [%]	% MICE BLOCKED ([1]; sodium zomepirac 2.32 + acetaminophen 0 mg/kg) [%]	% MICE BLOCKED ([1]; sodium zomepirac 4.64 + acetaminophen 0 mg/kg) [%]
CC(=O)Nc1ccc(O)cc1 [Acetaminophen, N-(4-hydroxyphenyl)acetamide]	224	10	30	45	75	216						
Cc1cc(CC(=O)O)n(C)c1C(=O)c1ccc(Cl)cc1 [Sodium Zomepirac]						1.16	1.52	5	20	35	60	95
